The values below come from patent EP0855398B1, “SESQUITERPENE DERIVATIVES HAVING ANTIVIRAL ACTIVITY” (SHIONOGI & CO., LTD., priority 1995, dated 1997).

The structures appear in SMILES notation. ≈ marks a conversion by molar mass, not a printed value.

A short description of data set [1]: in vitro. The following applies: bovine; for CC50 at 72 h: mdbk cells.
The test system of data set [2] is Influenza virus A/WSN/33 (H1N1). The experiment in a line: microbe, parasite or virus in culture. The class given is cell-based. The settings on record: 72 h; viral strain: Influenza virus A/WSN/33 (H1N1); Cell: MDBK; […]; 3 days; read-out: IC50.

In the case of `C[C@H]1CC[C@H]2C(C)(C)[C@@H](O)CC[C@]23Oc2c(c(O)cc4c2CNC4=O)C[C@]13C` [(2)], in data set [1], the CC50 at 72 h is 25 µg/mL (≈ 64.9 µM). In addition, the IC50 in data set [2] came to 0.001 µg/mL (≈ 0.00259 µM).

In data set [1], `C[C@H]1CC[C@H]2C(C)(C)[C@@H](O)CC[C@]23Oc2c(c(O)cc4c2C(=O)NC4=O)C[C@]13C` [(32a), (6aR, 7S, 9aS, 115, 13aS)-2,3,6,6a, 7,8,9,9a, 10, 11, 12, 13-dodecahydro-5, 11-dihydroxy-6a, 7, 30, 10-tetramethyl-13-dioxo-1H-benzo[8,8a][1]benzopyrano[2,3-e]isoindole] registered a CC50 at 72 h of 20 µg/mL (≈ 50.1 µM). Moreover, in data set [2], the IC50 lay within 0.001 to 0.002 µg/mL (≈ 0.0025 to 0.00501 µM).

For the compound `C[C@H]1CC[C@H]2C(C)(C)[C@H](OS(C)(=O)=O)CC[C@]23Oc2c(c(O)cc4c2CNC4=O)C[C@]13C` [Compound (13b), (6a R, 7 S, 9a S, 11 R, 13a S)-2,3,6,6a, 7,8,9,9a, 10, 11, 12, 13-dodecahydro-5-hydroxy-6a, 7, 10, 10-tetramethyl-11-methanesulfonyloxy-3-oxo-1H-benzo[8,8a][1]benzopyrano[2,3-e]isoindole], in data set [1], the CC50 worked out at 5 µg/mL (≈ 10.8 µM). Moreover, the IC50 in data set [2] amounted to 0.02 µg/mL (≈ 0.0431 µM).

For the compound `C[C@H]1CC[C@H]2C(C)(C)[C@H](OS(=O)(=O)c3ccccc3)CC[C@]23Oc2c(c(O)cc4c2CNC4=O)C[C@]13C` [Compound (13d), (6a R, 7 S, 9a S, 11 R, 13a S)-2,3,6,6a, 7,8,9,9a, 10, 11, 12, 13-dodecahydro-5-hydroxy-6a, 7, 10, 10-tetramethyl-3-oxo-11-phenylsulfonyloxy-1H-benzo[8,8a][1]benzopyrano[2,3-e]isoindole], the CC50 in data set [1] is 10 µg/mL (≈ 19 µM). Further, the IC50 in data set [2] lay within 0.02 to 0.06 µg/mL (≈ 0.038 to 0.114 µM).

The compound `C[C@H]1CC[C@H]2C(C)(C)[C@@H](O)CC[C@]23Oc2c(c(O)cc4c2CN(C)C4=O)C[C@]13C` [Compound (28a), (6aR, 7S, 9aS, 11S, 13aS)-2,3,6,6a, 7,8,9,9a, 10, 11, 12, 13-dodecahydro-5, 11-dihydroxy-2,6a, 7, 10, 10-pentamethyl-3-oxo-1H-benzo[8,8a][1]benzopyrano[2,3-e]isoindole] came in with a CC50 in data set [1] of 10 to 20 µg/mL (≈ 25 to 50.1 µM). In data set [2], the IC50 is 0.02 µg/mL (≈ 0.0501 µM).

As for `CCCCN1Cc2c(cc(O)c3c2O[C@@]24CC[C@H](O)C(C)(C)[C@@H]2CC[C@H](C)[C@@]4(C)C3)C1=O` [Compound (28b), (6aR, 7S, 9aS, 11S, 13aS)-2-butyl-2,3,6,6a, 7,8,9,9a, 10, 11, 12, 13-dodecahydro-5, 11-dihydroxy-6a, 7, 10, 10-tetramethyl-3-oxo-1H-benzo[8,8a][1]benzopyrano[2,3-e]isoindole], the CC50 in data set [1] is 2.5 µg/mL (≈ 5.66 µM). For the same compound, the IC50 in data set [2] is 0.02 µg/mL (≈ 0.0453 µM).

As to `C[C@H]1CC[C@H]2C(C)(C)[C@@H](O)CC[C@]23Oc2c(c(O)cc4c2CN(S(C)(=O)=O)C4=O)C[C@]13C` [Compound (28e), (6aR, 7S, 9aS, 11S, 13aS)-2,3,6,6a, 7,8,9,9a, 10, 11, 12, 13-dodecahydro-5, 11-dihydroxy-6a, 7, 10, 10-tetramethyl-2-methanesulfonyl-3-oxo-1H-benzo[8,8a][1]benzopyrano[2,3-e]isoindole], in data set [1], the CC50 is over 10 µg/mL. The IC50 in data set [2] was found to be 0.03 µg/mL (≈ 0.0647 µM).

In data set [1], `CC(=O)N1Cc2c(cc(O)c3c2O[C@@]24CC[C@H](O)C(C)(C)[C@@H]2CC[C@H](C)[C@@]4(C)C3)C1=O` [Compound (28f), (6aR, 7S, 9aS, 115, 13aS)-2-acetyl-2,3,6,6a, 7,8,9,9a, 10, 11, 12, 13-dodecahydro-5,11-dihydroxy-6a, 7, 10, 10-tetramethyl-3-oxo-1H-benzo[8,8a][1]benzopyrano[2,3-e]isoindole] yielded a CC50 at 72 h of over 10 µg/mL. The concentration for half-maximal inhibition (IC50) in data set [2] turned out to be 0.02 µg/mL (≈ 0.0468 µM).

`C[C@H]1CC[C@H]2C(C)(C)[C@@H](O)CC[C@]23Oc2c(c(O)cc4c2C(O)NC4=O)C[C@]13C` (stereo partly drawn) [Compound (30a), (6aR, 7S, 9aS, 11S, 13aS)-2,3,6,6a, 7,8,9,9a, 10, 11, 12, 13-dodecahydro-1,5, 11-trihydroxy-6a, 7, 10, 10-tetramethyl-3-oxo-1H-benzo[8,8a][1]benzopyrano[2,3-e]isoindole] displayed a CC50 in data set [1] of over 40 µg/mL. For the same compound, in data set [2], the IC50 is 0.002 µg/mL (≈ 0.00498 µM).

Compound `COC1NC(=O)c2cc(O)c3c(c21)O[C@@]12CC[C@H](O)C(C)(C)[C@@H]1CC[C@H](C)[C@@]2(C)C3` (stereo partly drawn) [Compound (30b), (6aR, 7S, 9aS, 11S, 13aS)-2,3,6,6a, 7,8,9,9a, 10, 11, 12, 13-dodecahydro-5, 11-dihydroxy-1-methoxy-6a, 7, 10, 10-tetramethyl-3-oxo-1H-benzo[8,8a][1]benzopyrano[2,3-e]isoindole] displayed a CC50 in data set [1] of 20 µg/mL (≈ 48.1 µM). Further, the IC50 in data set [2] amounted to 0.04 µg/mL (≈ 0.0963 µM).

For `CCCOC1NC(=O)c2cc(O)c3c(c21)O[C@@]12CC[C@H](O)C(C)(C)[C@@H]1CC[C@H](C)[C@@]2(C)C3` (stereo partly drawn) [Compound (30c), (6aR, 7S, 9aS, 11S, 13aS)-2,3,6,6a, 7,8,9,9a, 10, 11, 12, 13-dodecahydro-5, 11-dihydroxy-1-propoxy-6a, 7, 10, 10-tetramethyl-3-oxo-1H-benzo[8,8a][1]benzopyrano[2,3-e]isoindole], the CC50 in data set [1] stood at 20 µg/mL (≈ 45.1 µM). Also, the IC50 in data set [2] came out at 0.04 µg/mL (≈ 0.0902 µM).

The compound `C[C@H]1CC[C@H]2C(C)(C)[C@@H](O)CC[C@]23Oc2c(c(O)cc4c2C(=O)N(C)C4=O)C[C@]13C` [Compound (32b), (6aR, 7S, 9aS, 11S, 13aS)-2,3,6,6a, 7,8,9,9a, 10, 11, 12, 13-dodecahydro-5, 11-dihydroxy-2,6a, 7, 10, 10-pentamethyl-13-dioxo-1H-benzo[8,8a][1]benzopyrano[2,3-e]isoindole] displayed a CC50 at 72 h in data set [1] of 10 µg/mL (≈ 24.2 µM). Also, the IC50 in data set [2] was 0.04 µg/mL (≈ 0.0967 µM).

In the case of `CCCCN1C(=O)c2cc(O)c3c(c2C1=O)O[C@@]12CC[C@H](O)C(C)(C)[C@@H]1CC[C@H](C)[C@@]2(C)C3` [Compound (32c), (6aR, 7S, 9aS, 11S, 13aS)-2-butyl-2,3,6,6a, 7,8,9,9a, 10, 11, 12, 13-dodecahydro-5, 11-dihydroxy-6a, 7, 10, 10-tetramethyl-13-dioxo-1H-benzo[8,8a][1]benzopyrano[2,3-e]isoindole], in data set [1], the CC50 at 72 h was 5 µg/mL (≈ 11 µM). Besides, the IC50 in data set [2] lay in the range of 0.04 to 0.08 µg/mL (≈ 0.0878 to 0.176 µM).

Regarding `C[C@H]1CC[C@H]2C(C)(C)[C@@H](O)CC[C@]23Oc2c(c(O)cc4c2CNC4)C[C@]13C` [Compound (34a), (6aR, 7S, 9aS, 11S, 13aS)-2,3,6,6a, 7,8,9,9a, 10, 11, 12, 13-dodecahydro-5, 11-dihydroxy-6a, 7,10,10-tetramethyl-1H-benzo[8,8a][1]benzopyrano[2,3-e]isoindole], the CC50 in data set [1] was over 10 µg/mL. In addition, the IC50 in data set [2] was determined as 0.04 µg/mL (≈ 0.108 µM).

Consider `C[C@H]1CC[C@H]2C(C)(C)[C@@H](OC(=O)c3cccnc3)CC[C@]23Oc2c(c(O)cc4c2CNC4=O)C[C@]13C` [Compound (35a), (6aR, 7S, 9aS, 11S, 13aS)-2,3,6,6a, 7,8,9,9a, 10, 11, 12, 13-dodecahydro-5-hydroxy-6a, 7, 10, 10-tetramethyl-3-oxo-11-[(3-pyridyl)carbonyloxy]-1H-benzo[8,8a][1]benzopyrano[2,3-e]isoindole], for which, in data set [1], the CC50 was found to be 10 µg/mL (≈ 20.4 µM). Also, the IC50 in data set [2] stood at 0.001 µg/mL (≈ 0.00204 µM).

In the case of `C[C@H]1CC[C@H]2C(C)(C)[C@@H](OC(=O)c3cnccn3)CC[C@]23Oc2c(c(O)cc4c2CNC4=O)C[C@]13C` [Compound (35b), (6aR, 7S, 9aS, 11S, 13aS)-2,3,6,6a, 7,8,9,9a, 10, 11, 12, 13-dodecahydro-5-hydroxy-6a, 7, 10, 10-tetramethyl-3-oxo-11-[(2-pyrazyl)carbonyloxy]-1H-benzo[8,8a][1]benzopyrano[2,3-e]isoindole], in data set [1], the CC50 at 72 h turned out to be 10 µg/mL (≈ 20.3 µM). The IC50 in data set [2] was 0.002 to 0.004 µg/mL (≈ 0.00407 to 0.00814 µM).

In the case of `C[C@H]1CC[C@H]2C(C)(C)C=CC[C@]23Oc2c(c(O)cc4c2CNC4=O)C[C@]13C` [Compound (41a), (6a R, 7 S, 9a S, 13a S)-2,3,6,6a, 7,8,9,9a, 10, 13-decahydro-5-hydroxy-6a, 7, 10, 10-tetramethyl-3-oxo-1H-benzo[8,8a][1]benzopyrano[2,3-e]isoindole], the CC50 in data set [1] came to 5 µg/mL (≈ 13.6 µM). In addition, the IC50 in data set [2] worked out at 0.002 µg/mL (≈ 0.00544 µM).

For the compound `C[C@H]1CC[C@H]2C(C)(C)CCC[C@]23Oc2c(c(O)cc4c2CNC4=O)C[C@]13C` [Compound (42), (6a R, 7 S, 9a S, 13a S)-2,3,6,6a, 7,8,9,9a, 10, 11, 12, 13-dodecahydro-5-hydroxy-6a, 7, 10, 10-tetramethyl-3-oxo-1H-benzo [8,8a] [1] benzopyrano[2,3-e]isoindole], the CC50 in data set [1] was 5 µg/mL (≈ 13.5 µM). Besides, in data set [2], the IC50 was 0.002 µg/mL (≈ 0.00541 µM).

In turn, `C[C@H]1CC[C@H]2C(C)(C)[C@H]3O[C@H]3C[C@]23Oc2c(c(O)cc4c2CNC4=O)C[C@]13C` [Compound (43a), (6a R, 7 S, 9a S, 11 R, 12 S, 13a S)-11,12-epoxy-2,3,6,6a, 7,8,9,9a, 10, 11, 12, 13-dodecahydro-5-hydroxy-6a, 7, 10, 10-tetramethyl-3-oxo-1H-benzo[8,8a][1]benzopyrano[2,3-e]isoindole] registered a CC50 in data set [1] of 40 µg/mL (≈ 104 µM). For the same compound, the IC50 in data set [2] was 0.001 to 0.002 µg/mL (≈ 0.00261 to 0.00522 µM).

`C[C@H]1CC[C@H]2C(C)(C)[C@@H](N)CC[C@]23Oc2c(c(O)cc4c2CNC4=O)C[C@]13C` [Compound (47a), (6aR, 7S, 9aS, 11S, 13aS)-11-amino-2,3,6,6a, 7,8,9,9a, 10, 11, 12, 13-dodecahydro-5-hydroxy-6a, 7, 10, 10-tetramethyl-3-oxo-1H-benzo[8,8a][1]benzopyrano[2,3-e]isoindole] came in with a CC50 in data set [1] of over 10 µg/mL. In data set [2], the IC50 came out at 0.02 µg/mL (≈ 0.052 µM).

Compound `CC(=O)N[C@H]1CC[C@@]23Oc4c(c(O)cc5c4CNC5=O)C[C@]2(C)[C@@H](C)CC[C@H]3C1(C)C` [Compound (47b), (6aR, 7S, 9aS, 11S, 13aS)-11-acetylamino-2,3,6,6a, 7,8,9,9a, 10, 11, 12, 13-dodecahydro-5-hydroxy-6a, 7, 10, 10-tetramethyl-3-oxo-1H-benzo[8,8a][1]benzopyrano[2,3-e]isoindole] gave a CC50 in data set [1] of over 10 µg/mL. In data set [2], the IC50 is 0.02 µg/mL (≈ 0.0469 µM).

What is called IC50 is the concentration at which inhibition is half-maximal.
